# Data: the NIST ThermoML archive (doi:10.1021/je030165y)
# Numbers after ± are expanded uncertainties.
# Test: refractive index (Na D-line) (dimensionless)
# Conditions: 298.15 K; 101.33 kPa; Liquid; Standard Abbe refractometry
row,refractive index,SMILES
1,1.3783 ± 0.0008,"COCCOC [1,2-dimethoxyethane]"
2,1.4236 ± 0.0008,C1CCCCC1 [cyclohexane]
3,1.3722 ± 0.0007,CCCCCC [hexane]

row,SMILES,refractive index
1,Cc1ccccc1 [toluene],1.4941 ± 0.0008
